Results taken from patent publication US10988523B2, “Modified lipidated Relaxin B chain peptides and their therapeutic use” (Sanofi, priority 2018, dated 2021).
*1 amine or outer side, *2 acyl side, *3 side chain or, on linkers, in order; H or OH if unused. Where a SMILES comes first, the peptide text is derived from it. Side-chain parts run from the residue outwards. [ ]: non-standard residue; d: D form. The star is where a group is joined. X6 = CCCCCCCCCCCCCCC(=O)N[C@@H](CCC(=O)N[C@@H](CCC(=O)NCCCC[C@H](NC(=O)CC[C@H](NC(=O)CC[C@H](NC(=O)CCC(=O)NCCCOCCOCCOCCCNC(=O)CCC(=O)NCCCOCCOCCOCCCNC(=O)CCC(=O)NCCCOCCOCCOCCCN*)C(=O)O)C(=O)O)C(N)=O)C(=O)O)C(=O)O; X3 = CCCCCCCCCCCCCCCC(=O)N[C@@H](CCC(=O)N[C@@H](CCC(=O)N[C@@H](CCC(=O)N[C@@H](CCC(=O)NCCCC[C@H](NC(=O)CCC(=O)NCCCOCCOCCOCCCNC(=O)CCC(=O)NCCCOCCOCCOCCCN*)C(N)=O)C(=O)O)C(=O)O)C(=O)O)C(=O)O; PEG12 = NCCOCCOCCOCCOCCOCCOCCOCCOCCOCCOCCOCCOCCC(=O)O; γGlu = O=C(O)[C@H](CCC(=O)[*:2])N[*:1]; 1Nal = N[C@@H](Cc1cccc2ccccc12)C(=O)O; Stearoyl = CCCCCCCCCCCCCCCCCC(=O)*; Palmitoyl = CCCCCCCCCCCCCCCC(=O)*; αMeK = C[C@](N)(CCCCN)C(=O)O; αMeS = C[C@](N)(CO)C(=O)O; Nle = CCCC[C@H](N)C(=O)O; AEEA = NCCOCCOCC(=O)O; Aib = CC(C)(N)C(=O)O

Columns and labels:
[1] = molecular target: T1, RXFP1 (Homo sapiens, UniProt Q9HBX9); assay: OVCAR5 cAMP assay (HTRF), RXFP1 agonist activity; format: cell-based; conditions: for EC50: OVCAR5 cells, cAMP HTRF, read-out: EC50 (nM), OVCAR 5 cells (cAMP); for Emax: OVCAR-5, maximal cAMP relative to H2-relaxin maximum (100%), read-out: EMax, OVCAR 5 cells (cAMP)
T1 construct: OVCAR5 cells expressing endogenous RXFP1; endogenous in cells; host or cells: OVCAR5 cells
T1 sequence (Q9HBX9 1-757): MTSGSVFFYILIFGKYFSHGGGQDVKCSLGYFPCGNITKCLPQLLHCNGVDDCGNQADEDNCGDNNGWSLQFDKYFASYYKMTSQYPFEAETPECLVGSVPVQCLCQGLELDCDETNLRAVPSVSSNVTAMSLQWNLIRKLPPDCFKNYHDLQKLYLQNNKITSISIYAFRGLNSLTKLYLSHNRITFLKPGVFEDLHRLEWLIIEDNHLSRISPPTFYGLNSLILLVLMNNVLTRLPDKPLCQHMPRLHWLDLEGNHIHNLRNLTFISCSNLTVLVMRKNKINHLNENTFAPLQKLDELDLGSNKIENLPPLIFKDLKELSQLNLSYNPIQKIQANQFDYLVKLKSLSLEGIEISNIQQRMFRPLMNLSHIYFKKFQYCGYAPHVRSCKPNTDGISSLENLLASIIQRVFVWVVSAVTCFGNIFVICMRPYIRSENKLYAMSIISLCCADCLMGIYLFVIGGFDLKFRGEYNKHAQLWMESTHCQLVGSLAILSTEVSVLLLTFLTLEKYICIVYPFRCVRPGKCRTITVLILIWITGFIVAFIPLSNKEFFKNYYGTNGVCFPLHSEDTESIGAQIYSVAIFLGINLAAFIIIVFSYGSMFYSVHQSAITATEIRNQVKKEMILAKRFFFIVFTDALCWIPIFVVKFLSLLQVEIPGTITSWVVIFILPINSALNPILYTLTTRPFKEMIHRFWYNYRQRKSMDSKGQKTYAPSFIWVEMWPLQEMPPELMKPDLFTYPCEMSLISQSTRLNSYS
How it was run: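 cAMP accumulation readout: after 1 mM IBMX for 40 min, endogenous-RXFP1 OVCAR5 cells got rising peptide concentrations without FCS, 30 min, 37° C, then lysis with HTRF cAMP reagents. Nonlinear regression gave EC50; Emax expressed relative to H2-relaxin maximum, same occasion.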

[2] = Pharmacokinetic (PK) determination after i.v. or s.c. administration to rats; format: in vivo, Sprague Dawley rats; conditions: Sprague Dawley, Rat PK; for C0 / half-life: iv, 1 mg/kg i.v.; for C0: extrapolated plasma concentration at t=0, read-out: C0; for half-life / Cmax / Tmax / bioavailability: plasma; for half-life: read-out: T½ (converted); for Cmax / Tmax: sc, 3 mg/kg s.c.; for bioavailability: subcutaneous, 3 mg/kg s.c. vs 1 mg/kg i.v., dose-corrected AUC ratio
How it was run: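 Non-compartmental analysis of plasma LC/MS data (protein precipitation, BLQ taken as zero) gave T½, C0 (i.v.), Cmax/Tmax (s.c.) and F% from dose-corrected AUCs. Dosing: 3 mg/kg s.c. or 1 mg/kg i.v. in PBS to Sprague Dawley rats, purity- and salt-corrected.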

SMILES | EC50 [1] [nM] | Emax [1] [%] | C0 [2] [nM] | half-life [2] [h] | Cmax [2] [nM] | Tmax [2] [h] | bioavailability [2] [%]
CCCCCCCCCCCCCCCC(=O)N[C@@H](CCC(=O)N[C@@H](CCC(=O)N[C@@H](CCC(=O)N[C@@H](CCC(=O)NCCCC[C@H](NC(=O)CCC(=O)NCCCOCCOCCOCCCNC(=O)CCC(=O)NCCCOCCOCCOCCCNC(=O)[C@H](CCCCNC(C)=O)NC(=O)[C@H](C)NC(=O)[C@H](CCCNC(=N)N)NC(=O)[C@](C)(CCCCN)NC(=O)[C@H](CO)NC(=O)[C@H](Cc1ccccc1)NC(=O)[C@@H](NC(=O)[C@H](CO)NC(=O)[C@H](CCCC)NC(=O)CNC(=O)[C@H](CCC(=O)O)NC(=O)C(C)(C)NC(=O)C(C)(C)NC(=O)[C@@H](NC(=O)[C@H](CCCCNC(C)=O)NC(=O)[C@H](C)NC(=O)[C@H](CCCNC(=N)N)NC(=O)[C@@H](NC(=O)[C@H](CCCCN)NC(=O)[C@H](CCC(=O)O)NC(=O)[C@H](CCCNC(=N)N)NC(=O)CNC(=O)[C@H](CCC(=O)O)NC(=O)[C@H](CC(C)C)NC(C)=O)C(C)C)[C@@H](C)CC)[C@@H](C)O)C(N)=O)C(=O)O)C(=O)O)C(=O)O)C(=O)O [compound 162] (Ac-LEGREKVRAK(Ac)I[Aib][Aib]EG[Nle]STFS[αMeK]RAK(Ac)-X3) | 0.12 | 91 | 3200 | 5 | 2300 | 5 | 64
CCCCCCCCCCCCCCCC(=O)N[C@@H](CCC(=O)N[C@@H](CCC(=O)N[C@@H](CCC(=O)NCCCC[C@H](NC(=O)CCOCCOCCOCCOCCOCCOCCOCCOCCOCCOCCOCCOCCNC(=O)[C@H](CCCCN)NC(=O)[C@H](CCCNC(=N)N)NC(=O)C(C)(C)NC(=O)[C@H](CO)NC(=O)[C@H](Cc1c[nH]c2ccccc12)NC(=O)[C@@H](NC(=O)[C@H](CO)NC(=O)[C@H](CCCC)NC(=O)CNC(=O)[C@H](CCC(=O)O)NC(=O)C(C)(C)NC(=O)C(C)(C)NC(=O)[C@@H](NC(=O)[C@H](CCC(N)=O)NC(=O)[C@H](C)NC(=O)[C@H](CCCNC(=N)N)NC(=O)[C@@H](NC(=O)[C@H](CCCCN)NC(=O)[C@H](CCC(=O)O)NC(=O)[C@H](CCCNC(=N)N)NC(=O)CNC(=O)[C@H](CCC(=O)O)NC(=O)[C@H](CC(C)C)NC(C)=O)C(C)C)[C@@H](C)CC)[C@@H](C)O)C(N)=O)C(=O)O)C(=O)O)C(=O)O [compound 24] (Ac-LEGREKVRAQI[Aib][Aib]EG[Nle]STWS[Aib]RK[PEG12]K([γGlu-γGlu-γGlu-Palmitoyl])-NH2) |  | 74 | 3700 | 6.4 | 1800 | 5 | 81
CCCCCCCCCCCCCCC(=O)N[C@@H](CCC(=O)N[C@@H](CCC(=O)NCCCC[C@H](NC(=O)CC[C@H](NC(=O)CC[C@H](NC(=O)CCC(=O)NCCCOCCOCCOCCCNC(=O)CCC(=O)NCCCOCCOCCOCCCNC(=O)CCC(=O)NCCCOCCOCCOCCCNC(=O)[C@H](CCCCNC(C)=O)NC(=O)[C@H](C)NC(=O)[C@H](CCCNC(=N)N)NC(=O)[C@](C)(CCCCN)NC(=O)[C@H](CO)NC(=O)[C@H](Cc1ccccc1)NC(=O)[C@@H](NC(=O)[C@H](CO)NC(=O)[C@H](CCC(N)=O)NC(=O)CNC(=O)[C@H](CCC(=O)O)NC(=O)C(C)(C)NC(=O)C(C)(C)NC(=O)[C@@H](NC(=O)[C@H](CCCCNC(C)=O)NC(=O)[C@H](C)NC(=O)[C@H](CCCNC(=N)N)NC(=O)[C@@H](NC(=O)[C@H](CCCCN)NC(=O)[C@H](CCC(=O)O)NC(=O)[C@H](CCCNC(=N)N)NC(=O)CNC(=O)[C@H](CCC(=O)O)NC(=O)[C@H](CC(C)C)NC(C)=O)C(C)C)[C@@H](C)CC)[C@@H](C)O)C(=O)O)C(=O)O)C(N)=O)C(=O)O)C(=O)O [compound 184] (Ac-LEGREKVRAK(Ac)I[Aib][Aib]EGQSTFS[αMeK]RAK(Ac)-X6) |  | 100 | 4700 | 7.3 | 2800 | 7 | 71
CCCCCCCCCCCCCCCCCC(=O)N[C@@H](CCC(=O)N[C@@H](CCC(=O)N[C@@H](CCC(=O)N[C@@H](CCC(=O)NCCCC[C@H](NC(=O)CCOCCOCCOCCOCCOCCOCCOCCOCCOCCOCCOCCOCCNC(=O)[C@H](CCCCNC(C)=O)NC(=O)[C@H](CCCCN)NC(=O)[C@H](CCCNC(=N)N)NC(=O)[C@](C)(CCCCN)NC(=O)[C@](C)(CO)NC(=O)[C@H](Cc1c[nH]c2ccccc12)NC(=O)[C@@H](NC(=O)[C@H](CO)NC(=O)[C@H](CCCC)NC(=O)CNC(=O)[C@H](CCC(=O)O)NC(=O)C(C)(C)NC(=O)C(C)(C)NC(=O)[C@@H](NC(=O)[C@H](CCCCNC(C)=O)NC(=O)[C@H](C)NC(=O)[C@H](CCCNC(=N)N)NC(=O)[C@@H](NC(=O)[C@H](CCCCN)NC(=O)[C@H](CCC(=O)O)NC(=O)[C@H](CCCNC(=N)N)NC(=O)CNC(=O)[C@H](CCC(=O)O)NC(=O)[C@H](CC(C)C)NC(C)=O)C(C)C)[C@@H](C)CC)[C@@H](C)O)C(N)=O)C(=O)O)C(=O)O)C(=O)O)C(=O)O [compound 40] (Ac-LEGREKVRAK(Ac)I[Aib][Aib]EG[Nle]STW[αMeS][αMeK]RKK(Ac)[PEG12]K([γGlu-γGlu-γGlu-γGlu-Stearoyl])-NH2) | 0.02 | 90 | 7080 | 3.6 | 1540 | 6 | 66
CCCCCCCCCCCCCCCCCC(=O)N[C@@H](CCC(=O)N[C@@H](CCC(=O)N[C@@H](CCC(=O)N[C@@H](CCC(=O)NCCOCCOCC(=O)NCCOCCOCC(=O)NCCOCCOCC(=O)NCCOCCOCC(=O)NCCCC[C@H](NC(=O)[C@H](CCCCN)NC(=O)[C@H](CCCCN)NC(=O)[C@H](CCCNC(=N)N)NC(=O)C(C)(C)NC(=O)[C@H](CO)NC(=O)[C@H](Cc1c[nH]c2ccccc12)NC(=O)[C@@H](NC(=O)[C@H](CO)NC(=O)[C@H](CCCC)NC(=O)CNC(=O)[C@H](CCC(=O)O)NC(=O)C(C)(C)NC(=O)C(C)(C)NC(=O)[C@@H](NC(=O)[C@H](CCCCNC(C)=O)NC(=O)[C@H](C)NC(=O)[C@H](CCCNC(=N)N)NC(=O)[C@@H](NC(=O)[C@H](CCCCN)NC(=O)[C@H](CCC(=O)O)NC(=O)[C@H](CCCNC(=N)N)NC(=O)CNC(=O)[C@H](CCC(=O)O)NC(=O)[C@H](CC(C)C)NC(C)=O)C(C)C)[C@@H](C)CC)[C@@H](C)O)C(N)=O)C(=O)O)C(=O)O)C(=O)O)C(=O)O [compound 91] (Ac-LEGREKVRAK(Ac)I[Aib][Aib]EG[Nle]STWS[Aib]RKKK([AEEA-AEEA-AEEA-AEEA-γGlu-γGlu-γGlu-γGlu-Stearoyl])-NH2) |  | 88 | 2900 | 3 | 1300 | 7 | 89
CCCCCCCCCCCCCCCCCC(=O)N[C@@H](CCC(=O)N[C@@H](CCC(=O)N[C@@H](CCC(=O)NCCCC[C@H](NC(=O)CCOCCOCCOCCOCCOCCOCCOCCOCCOCCOCCOCCOCCNC(=O)[C@H](CCCCNC(C)=O)NC(=O)[C@H](CCCCN)NC(=O)[C@H](CCCNC(=N)N)NC(=O)C(C)(C)NC(=O)[C@H](CO)NC(=O)[C@H](Cc1cccc2ccccc12)NC(=O)[C@@H](NC(=O)[C@H](CO)NC(=O)[C@H](CCCC)NC(=O)CNC(=O)[C@H](CCC(=O)O)NC(=O)C(C)(C)NC(=O)C(C)(C)NC(=O)[C@@H](NC(=O)[C@H](CCCCNC(C)=O)NC(=O)C(C)(C)NC(=O)[C@H](CCCNC(=N)N)NC(=O)[C@@H](NC(=O)[C@H](CCCCN)NC(=O)[C@H](CCC(=O)O)NC(=O)[C@H](CCCNC(=N)N)NC(=O)CNC(=O)[C@H](CCC(=O)O)NC(=O)[C@H](CC(C)C)NC(C)=O)C(C)C)[C@@H](C)CC)[C@@H](C)O)C(N)=O)C(=O)O)C(=O)O)C(=O)O [compound 37] (Ac-LEGREKVR[Aib]K(Ac)I[Aib][Aib]EG[Nle]ST[1Nal]S[Aib]RKK(Ac)[PEG12]K([γGlu-γGlu-γGlu-Stearoyl])-NH2) |  | 83 | 5560 | 2.55 | 1710 | 6 | 40
